The target of one assay is BTK wt (Homo sapiens (Human), UniProt Q06187). Nature of the assay: 33P ATP HotSpot kinase assay, BTK wt. The assay is classed as biochemical. The conditions noted are these: 10 μM ATP. The source says: (§1) (See, e.g., Ma, et al, 2008 Expert Opin Drug Discov. 3(6): 607-621.)
A further assay has as its system MDA-MB-231 cells. Nature of the assay: Cancer cell growth inhibition, MDA-MB-231. Type of assay: cell-based. Particulars: Homo sapiens, 72 hr, cell viability. Here is the method:
(§2) In order to test certain compounds of Compounds 1 to 24 for cancer cell growth inhibition, a leukemia cancer cell line EOL-1, and triple negative breast cancer cell line MDA-MB-231 was used.
(§3) EOL-1 and MDA-MB-231 cells were cultured in a RPMI-1640 cell culture medium supplemented with 10% fetal bovine serum (FBS) and 1% penicillin/streptomycin (Gibco BRL).
(§4) The cancer cell lines stored in a liquid nitrogen tank were each quickly thawed at 37° C. water bath, and centrifuged to remove the DMSO in the freezing medium. The resulting cell pellet was mixed with a culture medium, incubated in a culture flask at 37° C. under 5% CO2 for 2 to 3 days. The EOL-1 cells were sub-cultured by 1:5˜10 dilution in fresh culture medium. For MD-MB-231 cells, the culture medium was removed and the remaining cells were washed with PBS (Phosphate Buffered Saline) and trypsinized by trypsin-EDTA. The detached cells were sub-cultured by 1:5˜10 dilution in fresh culture medium.
(§5) For the cell growth inhibition assay, the cells were seeded in 96-well cell culture plates at 5×10^4 cells/well for EOL-1 and 5×10^3 cells/well for MDA-MB-231 cells in 50 μL and incubated at 37° C. under 5% CO2 for 3 to 6 hr. before the compounds were added.
(§6) Certain compounds of Compounds 1-24 were dissolved in dimethylsulfoxide (DMSO) to a concentration of 10 mM. The DMSO solution containing test compound was diluted with a culture medium to a final concentration of 600 μM, and then diluted 100 times to 6 μM as top dose followed by 1:3 serial dilutions, and then add 50 μL diluted compounds to the 50 μL cells, with a final top dose at 3 μM and the plate was incubated at 37° C. under 5% CO2 for 72 hr. The cell viability was determined by Cell Meter™ Fluorimetric Cell Cytotoxicity Assay Kit (AAT Bioquest) according to the manufacturer's instructions. Briefly, thaw and warm up the Assay Solution (Component A) to 37° C., and mix it thoroughly. Add 20 μL/well (96-well plate) of Assay Solution (Component A). Mix the reagents by shaking the plate gently for 30 seconds. Incubate the cells in a 37° C., 5% CO2 incubator for 1-24 hr., protected from light. Monitor the fluorescence intensity (bottom read) at Ex/Em=540/590 nm. Alternatively, read the O.D. at 570 nm (the reference wavelength should be 600 nm) to determine the cell viability in each well.

The next assay has as its target FAK (Homo sapiens (Human), UniProt Q05397). The assay is described as follows: 33P ATP HotSpot kinase assay, FAK. The conditions noted are these: read-out: IC50 FAK, 10 μM ATP.
In another assay the test system is EOL-1 cells. The assay is described as follows: Cancer cell growth inhibition, EOL-1. Type of assay: cell-based. The conditions noted are these: Homo sapiens, EOL1, 72 hr, cell viability. As for the experimental part:
as §2, §3, §4, §5, §6

For another assay, the target named is EGFR wt (Homo sapiens (Human), UniProt P00533). Nature of the assay: 33P ATP HotSpot kinase assay, EGFR wt. Particulars: 10 μM ATP. Type of assay: biochemical.
Another assay addresses BMX (Homo sapiens (Human), UniProt P51813). Nature of the assay: 33P ATP HotSpot kinase assay, BMX. The conditions noted are these: 10 μM ATP. The assay is classed as biochemical. Here is the method:
as §1
(§7) Each of Compound-1 to Compound-24 was measured for its inhibitory activity on TEC family kinases, BMX and ITK. The measurement was carried out in the same process as described above, BMX, ITK enzymes were used.

Assay [1] concerns the target BTK phosphorylation at tyrosine 223 (Homo sapiens (Human), UniProt Q06187). Nature of the assay: Immunoblot analysis of phospho-BTK(Y223) in Ramos cells. Type of assay: cell-based. The conditions noted are these: 1 hr treatment, anti-IgM stimulation, western blot. As for the experimental part: Ramos cells were cultured in RPMI-1640 medium with 10% fetal bovine serum (FBS) and 1% penicillin/streptomycin (Gibco BRL). Before the assay, Ramos cells were counted and seeded at 1×10^6 cells/mL, cultured overnight in RPMI-1640 medium with 10% FBS, the cells were centrifuged at 950 rpm for 10 min., then 1˜2×10^6 cells were split into each tube in 300 μL medium. The cells were treated with certain compounds of Compound 1-24 at 0˜3 μM for 1 hr. in 37° C., then the cells were stimulated with 10 μg/mL of anti-IgM (BioLegend) for 5 min., followed by 3 min. spin at 2000 rpm. After aspirating the supernatant, 60 μL of RIPA lysis buffer (50 mM Tris-HCl, 1 mM EDTA, 1% NP-40, 0.5% sodium deoxycholate, and 0.1% SDS, pH 7.4, 150 mM NaCl, 1 mM Na3VO4) was added to the cell pellet to lyse the cells on ice for 30 min. After spin at 10,000 rpm for 5 min., 60 μL of the cell lysate was transferred to a fresh tube, and 20 μL of 4× LDS buffer was added to the tube. The samples were boiled on a 100° C. heat block for 10 min. 25 μL lysate was loaded on to SDS-PAGE gel (NuPAGE™ Novex™ 4-12% Bis-Tris Midi Protein Gels, cat. no. WG1402BOX, ThermoFisher) for western blotting analysis per the manufacturer's instructions. Antibodies used for immunoblot analysis include Btk and p-Btk(Y223) (cat. no. 3553 and 5082; Cell Signaling Technology, Beverly, Mass.). p-Btk(Y223) (cat. no. GTX61791; GeneTex, Inc., Irvine, Calif.). Membranes were detected using infrared fluorescence dye (IRDye® 800CW Donkey anti-Rabbit IgG (H+L), cat. no. P/N 925-32213; IRDye® 680RD Donkey anti-Mouse IgG (H+L), cat. no. P/N 925-68072 and scanned on a LiCor Odyssey scanner (LiCor Biosciences, Lincoln, Nebr.).
A general note: Immunoblotting shows a protein as a band on a membrane.

Another assay has as its target ITK (Homo sapiens (Human), UniProt Q08881). Nature of the assay: 33P ATP HotSpot kinase assay, ITK. Type of assay: biochemical. Particulars: 10 μM ATP. As for the experimental part:
as §1, §7

Where only a bound is given, the exact number is not on record here.

FAK, sequence (Q05397 whole entry): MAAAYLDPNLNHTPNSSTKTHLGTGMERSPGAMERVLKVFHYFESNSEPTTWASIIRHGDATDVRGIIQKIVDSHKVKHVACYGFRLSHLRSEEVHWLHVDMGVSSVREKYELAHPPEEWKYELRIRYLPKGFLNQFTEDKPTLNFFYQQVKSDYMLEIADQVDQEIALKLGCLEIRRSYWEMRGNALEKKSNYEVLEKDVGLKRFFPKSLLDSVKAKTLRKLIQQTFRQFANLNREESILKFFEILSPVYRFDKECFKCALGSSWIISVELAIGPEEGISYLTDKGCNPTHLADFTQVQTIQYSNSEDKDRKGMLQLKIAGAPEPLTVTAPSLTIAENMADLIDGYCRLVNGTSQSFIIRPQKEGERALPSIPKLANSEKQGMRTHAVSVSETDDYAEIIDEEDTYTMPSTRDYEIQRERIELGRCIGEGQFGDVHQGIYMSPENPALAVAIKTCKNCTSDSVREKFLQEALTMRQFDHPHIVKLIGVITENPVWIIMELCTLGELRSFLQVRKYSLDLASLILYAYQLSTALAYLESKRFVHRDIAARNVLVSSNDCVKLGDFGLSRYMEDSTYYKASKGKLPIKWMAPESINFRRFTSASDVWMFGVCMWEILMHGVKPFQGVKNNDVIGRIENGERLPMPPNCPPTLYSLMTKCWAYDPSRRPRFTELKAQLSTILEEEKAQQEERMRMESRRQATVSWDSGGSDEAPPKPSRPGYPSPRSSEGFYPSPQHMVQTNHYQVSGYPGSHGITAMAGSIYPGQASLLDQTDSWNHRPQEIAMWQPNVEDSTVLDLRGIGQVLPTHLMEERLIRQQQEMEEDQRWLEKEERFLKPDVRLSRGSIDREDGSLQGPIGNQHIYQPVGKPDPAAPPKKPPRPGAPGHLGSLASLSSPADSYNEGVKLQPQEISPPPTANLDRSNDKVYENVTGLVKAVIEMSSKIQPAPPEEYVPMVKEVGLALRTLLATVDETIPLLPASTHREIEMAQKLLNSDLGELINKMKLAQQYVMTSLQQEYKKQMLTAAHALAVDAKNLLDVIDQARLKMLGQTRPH
EGFR wt, sequence (P00533 25-1210): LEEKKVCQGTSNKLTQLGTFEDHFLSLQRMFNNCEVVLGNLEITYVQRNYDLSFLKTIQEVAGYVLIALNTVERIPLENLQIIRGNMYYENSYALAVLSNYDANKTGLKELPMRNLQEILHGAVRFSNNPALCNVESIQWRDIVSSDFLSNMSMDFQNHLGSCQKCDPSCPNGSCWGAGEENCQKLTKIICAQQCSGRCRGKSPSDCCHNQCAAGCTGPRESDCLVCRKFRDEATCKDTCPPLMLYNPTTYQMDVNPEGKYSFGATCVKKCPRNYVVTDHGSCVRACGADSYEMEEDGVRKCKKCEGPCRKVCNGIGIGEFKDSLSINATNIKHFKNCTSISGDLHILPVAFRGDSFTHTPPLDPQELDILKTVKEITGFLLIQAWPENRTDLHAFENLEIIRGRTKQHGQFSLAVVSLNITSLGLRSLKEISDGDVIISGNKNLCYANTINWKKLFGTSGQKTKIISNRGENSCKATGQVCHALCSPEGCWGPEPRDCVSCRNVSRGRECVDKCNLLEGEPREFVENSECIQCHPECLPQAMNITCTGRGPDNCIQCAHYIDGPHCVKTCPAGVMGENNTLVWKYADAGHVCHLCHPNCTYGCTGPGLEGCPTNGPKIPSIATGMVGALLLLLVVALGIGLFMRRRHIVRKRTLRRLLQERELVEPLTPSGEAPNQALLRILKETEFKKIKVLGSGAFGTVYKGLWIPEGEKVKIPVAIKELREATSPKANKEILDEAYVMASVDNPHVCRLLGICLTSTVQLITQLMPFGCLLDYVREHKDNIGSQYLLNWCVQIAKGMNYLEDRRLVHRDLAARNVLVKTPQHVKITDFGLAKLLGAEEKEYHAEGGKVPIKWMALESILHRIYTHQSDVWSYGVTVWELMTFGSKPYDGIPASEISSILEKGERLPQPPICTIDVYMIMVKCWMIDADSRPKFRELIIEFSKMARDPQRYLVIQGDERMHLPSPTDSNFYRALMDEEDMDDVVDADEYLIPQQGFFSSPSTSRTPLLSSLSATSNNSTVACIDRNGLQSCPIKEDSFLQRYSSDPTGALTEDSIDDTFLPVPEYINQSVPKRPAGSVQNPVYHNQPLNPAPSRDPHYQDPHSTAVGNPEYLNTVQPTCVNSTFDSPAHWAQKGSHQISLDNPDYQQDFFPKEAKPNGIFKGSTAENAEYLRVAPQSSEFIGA
BTK phosphorylation at tyrosine 223, sequence (Q06187 whole entry): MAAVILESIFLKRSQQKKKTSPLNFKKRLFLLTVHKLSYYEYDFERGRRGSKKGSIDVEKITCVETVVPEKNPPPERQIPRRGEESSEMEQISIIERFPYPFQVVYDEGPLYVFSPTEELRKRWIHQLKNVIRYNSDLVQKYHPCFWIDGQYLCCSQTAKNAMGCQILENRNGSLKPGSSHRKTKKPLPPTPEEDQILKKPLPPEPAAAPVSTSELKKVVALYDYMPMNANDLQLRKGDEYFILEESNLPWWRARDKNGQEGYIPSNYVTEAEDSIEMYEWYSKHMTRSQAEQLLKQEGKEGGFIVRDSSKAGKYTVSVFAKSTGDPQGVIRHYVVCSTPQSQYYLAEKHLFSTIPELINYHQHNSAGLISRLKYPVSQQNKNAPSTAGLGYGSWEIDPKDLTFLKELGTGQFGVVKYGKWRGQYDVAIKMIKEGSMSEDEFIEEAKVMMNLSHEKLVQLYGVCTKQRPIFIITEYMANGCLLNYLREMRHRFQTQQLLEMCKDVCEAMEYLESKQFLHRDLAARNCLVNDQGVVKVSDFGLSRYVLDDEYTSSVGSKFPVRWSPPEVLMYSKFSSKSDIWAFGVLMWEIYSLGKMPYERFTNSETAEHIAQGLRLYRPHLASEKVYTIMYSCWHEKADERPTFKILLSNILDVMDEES
BTK wt, sequence (Q06187 whole entry): as above
BMX, sequence (P51813 whole entry): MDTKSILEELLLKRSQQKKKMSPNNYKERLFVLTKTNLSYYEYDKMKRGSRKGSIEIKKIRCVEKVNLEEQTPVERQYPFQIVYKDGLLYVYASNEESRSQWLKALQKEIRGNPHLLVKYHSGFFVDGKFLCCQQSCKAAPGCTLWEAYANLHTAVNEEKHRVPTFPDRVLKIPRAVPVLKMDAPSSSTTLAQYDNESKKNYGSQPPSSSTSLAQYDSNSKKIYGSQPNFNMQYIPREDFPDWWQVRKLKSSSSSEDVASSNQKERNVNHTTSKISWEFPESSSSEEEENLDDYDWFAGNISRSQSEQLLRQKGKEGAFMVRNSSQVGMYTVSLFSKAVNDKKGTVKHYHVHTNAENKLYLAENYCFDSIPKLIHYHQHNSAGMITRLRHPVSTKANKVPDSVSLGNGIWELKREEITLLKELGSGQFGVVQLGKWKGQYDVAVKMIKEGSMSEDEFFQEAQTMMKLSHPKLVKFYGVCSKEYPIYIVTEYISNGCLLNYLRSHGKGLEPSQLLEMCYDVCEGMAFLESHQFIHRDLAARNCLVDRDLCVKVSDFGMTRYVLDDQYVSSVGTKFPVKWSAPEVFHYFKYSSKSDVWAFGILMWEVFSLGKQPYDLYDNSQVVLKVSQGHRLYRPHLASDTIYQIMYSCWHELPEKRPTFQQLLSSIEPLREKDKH
ITK, sequence (Q08881 whole entry): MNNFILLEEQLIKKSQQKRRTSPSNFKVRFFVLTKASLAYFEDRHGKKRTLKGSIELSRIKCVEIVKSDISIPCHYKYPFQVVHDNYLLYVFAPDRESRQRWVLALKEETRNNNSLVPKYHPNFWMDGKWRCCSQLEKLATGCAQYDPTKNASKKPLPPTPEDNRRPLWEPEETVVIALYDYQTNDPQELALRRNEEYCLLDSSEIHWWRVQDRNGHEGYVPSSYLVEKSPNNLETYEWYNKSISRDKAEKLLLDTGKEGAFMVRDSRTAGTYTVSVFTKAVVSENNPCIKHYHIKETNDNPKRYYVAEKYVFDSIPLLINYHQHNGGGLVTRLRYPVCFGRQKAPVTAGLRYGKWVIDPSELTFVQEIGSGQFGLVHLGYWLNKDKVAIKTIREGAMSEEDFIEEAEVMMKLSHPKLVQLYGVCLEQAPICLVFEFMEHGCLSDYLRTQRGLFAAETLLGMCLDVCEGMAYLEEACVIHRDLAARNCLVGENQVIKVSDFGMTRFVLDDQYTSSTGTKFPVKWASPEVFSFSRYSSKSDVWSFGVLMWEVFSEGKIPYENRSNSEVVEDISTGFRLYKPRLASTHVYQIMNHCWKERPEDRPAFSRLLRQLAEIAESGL
Method for EGFR wt: Then, Kinase assays were performed using the “HotSpot” assay platform.
Briefly, specific kinase/substrate pairs along with required cofactors were prepared in reaction buffer; 20 mM Hepes pH 7.5, 10 mM MgCl2, 1 mM EGTA, 0.02% Brij35, 0.02 mg/ml BSA, 0.1 mM Na3VO4, 2 mM DTT, 1% DMSO. Compounds were delivered into the reaction, followed about 20 minutes later by addition of a mixture of ATP (Sigma, St. Louis Mo.) and ^33P ATP (Perkin Elmer, Waltham Mass.) to a final concentration of 10 μM.
Reactions were carried out at room temperature for 120 min, followed by spotting of the reactions onto P81 ion exchange filter paper (Whatman Inc., Piscataway, N.J.). Unbound phosphate was removed by extensive washing of filters in 0.75% phosphoric acid. […] IC50 values and curve fits were obtained using Prism (GraphPad Software).

Regarding `CN([C@@H]1c2ccccc2C[C@H]1Oc1cc(Nc2ccc3c(c2)OCCOCCOCCO3)ncc1C(F)(F)F)S(C)(=O)=O` [Compound-32, N-methyl-N-[(1R,2R)-2-[[2-(2,5,8,11-tetraoxabicyclo[10.4.0]hexadeca-1(12),13,15-trien-14-ylamino)-5-(trifluoromethyl)-4-pyridyl]oxy]indan-1-yl]methanesulfonamide], the IC50 (as a rule, the concentration needed to halve the response being measured) at BTK wt was over 10000 nM.
With `c1cc(Nc2nc(Nc3ccc4c(c3)OCCOCCOCCO4)nc3[nH]cnc23)c2cc[nH]c2c1` [Compound-22, N6-(1H-indol-4-yl)-N2-(2,5,8,11-tetraoxabicyclo[10.4.0]hexadeca-1(12),13,15-trien-14-yl)-9H-purine-2,6-diamine], the 50% inhibitory concentration (IC50) was over 3000 nM in the assay on MDA-MB-231 cells; 42.4 nM at FAK; 21.4 nM on BTK wt; 1200 nM in the assay on EOL-1 cells; over 1000 nM on EGFR wt.
Regarding `CCC(=O)N1CCC[C@@H](Nc2nc(Nc3ccc4c(c3)OCCOCCOCCO4)nc3[nH]cnc23)C1` [Compound-4, 1-[(3R)-3-[[2-(2,5,8,11-tetraoxabicyclo[10.4.0]hexadeca-1(12),13,15-trien-14-ylamino)-9H-purin-6-yl]amino]-1-piperidyl]propan-1-one], the IC50 on FAK came out at 1150 nM; against BTK wt it was 144 nM; at BMX, 19.6 nM; against ITK, 1450 nM. Further, in assay [1], the concentration for a half-maximal effect (EC50) (in general, the concentration needed to bring the measured effect to its halfway point) lay in the range of 100 to 1000 nM.
As for `C=CC(=O)N1CCC[C@@H](Nc2nc(Nc3ccc(OCCCOC4(CC)OCC(C)(C)CO4)cc3)ncc2F)C1` [Compound-1, 1-[(3R)-3-[[2-[4-[3-[(2-ethyl-5,5-dimethyl-1,3-dioxan-2-yl)oxy]propoxy]anilino]-5-fluoro-pyrimidin-4-yl]amino]-1-piperidyl]prop-2-en-1-one], the IC50 in the assay on MDA-MB-231 cells and in the assay on EOL-1 cells was over 3000 nM in each case. The same compound had a concentration giving a half-maximal response (EC50) in assay [1] of 100 to 1000 nM.
Turning to `CN([C@@H]1CCCC[C@H]1Oc1nc(Nc2ccc3c(c2)OCCOCCOCCO3)nc2[nH]ccc12)S(C)(=O)=O` [Compound-16, N-methyl-N-[(1R,2R)-2-[[2-(2,5,8,11-tetraoxabicyclo[10.4.0]hexadeca-1(16),12,14-trien-14-ylamino)-7H-pyrrolo[2,3-d]pyrimidin-4-yl]oxy]cyclohexyl]methanesulfonamide], the IC50 is 3000 nM in the assay on MDA-MB-231 cells; 34.9 nM on FAK; over 1000 nM at BTK wt; 2000 nM with EOL-1 cells; over 1000 nM on EGFR wt.
`c1cc(Nc2nc(Nc3ccc4c(c3)OCCOCCOCCO4)nc3[nH]cnc23)c2[nH]ccc2c1` [Compound-23, N6-(1H-indol-7-yl)-N2-(2,5,8,11-tetraoxabicyclo[10.4.0]hexadeca-1(12),13,15-trien-14-yl)-9H-purine-2,6-diamine]: the figures for the IC50 on FAK, against BTK wt and on EGFR wt were 257 nM, 62.8 nM and over 1000 nM, respectively.
In the case of `CC(=O)Nc1cc(C(F)(F)F)ccc1Nc1nc(Nc2ccc3c(c2)OCCOCCOCCO3)nc2[nH]cnc12` [Compound-29, N-[2-[[2-(2,5,8,11-tetraoxabicyclo[10.4.0]hexadeca-1(12),13,15-trien-14-ylamino)-9H-purin-6-yl]amino]-5-(trifluoromethyl)phenyl]acetamide], the half-inhibitory concentration (IC50) at BTK wt is 67.1 nM.
On the same count and under the same terms, the value for `CC(=O)Nc1cc(C)ccc1Nc1nc(Nc2ccc3c(c2)OCCOCCOCCO3)nc2[nH]cnc12` [Compound-27, N-[5-methyl-2-[[2-(2,5,8,11-tetraoxabicyclo[10.4.0]hexadeca-1(12),13,15-trien-14-ylamino)-9H-purin-6-yl]amino]phenyl]acetamide] was 16.8 nM; that for `C=CC(=O)Nc1cc(C)ccc1Nc1nc(Nc2ccc3c(c2)OCCOCCOCCO3)nc2[nH]ncc12` [Compound-26, N-[5-methyl-2-[[6-(2,5,8,11-tetraoxabicyclo[10.4.0]hexadeca-1(12),13,15-trien-14-ylamino)-1H-pyrazolo[3,4-d]pyrimidin-4-yl]amino]phenyl]prop-2-enamide] was 33.3 nM; that for `CC(=O)Nc1cc(F)ccc1Nc1nc(Nc2ccc3c(c2)OCCOCCOCCO3)nc2[nH]cnc12` [Compound-28, N-[5-fluoro-2-[[2-(2,5,8,11-tetraoxabicyclo[10.4.0]hexadeca-1(12),13,15-trien-14-ylamino)-9H-purin-6-yl]amino]phenyl]acetamide] was 9.37 nM.
For the compound `C=CC(=O)Nc1cccc(-c2nc(Nc3ccc4c(c3)OCCOCCOCCO4)ncc2F)c1` [Compound-30, N-[3-[5-fluoro-2-(2,5,8,11-tetraoxabicyclo[10.4.0]hexadeca-1(12),13,15-trien-14-ylamino)pyrimidin-4-yl]phenyl]prop-2-enamide], the 50% inhibitory concentration (IC50) is over 1000 nM on FAK and 613 nM at BTK wt.
Take `CCC(=O)Nc1cccc(Nc2nc(Nc3ccc4c(c3)OCCOCCOCCO4)nc3[nH]cnc23)c1` [Compound-8, N-[3-[[2-(2,5,8,11-tetraoxabicyclo[10.4.0]hexadeca-1(12),13,15-trien-14-ylamino)-9H-purin-6-yl]amino]phenyl]propanamide]: the half-maximal inhibitory concentration (IC50) on FAK was 1130 nM; against BTK wt it was 88.8 nM; at BMX, 46.4 nM; against EGFR wt, over 1000 nM; against ITK, 1290 nM. Besides, the EC50 in assay [1] fell in the range of 100 to 1000 nM.
Turning to `CN(C1CCCC1Oc1nc(Nc2ccc3c(c2)OCCOCCOCCO3)nc2[nH]ccc12)S(C)(=O)=O` (stereo not drawn) [Compound-18, N-methyl-N-[2-[[2-(2,5,8,11-tetraoxabicyclo[10.4.0]hexadeca-1(16),12,14-trien-14-ylamino)-7H-pyrrolo[2,3-d]pyrimidin-4-yl]oxy]cyclopentyl]methanesulfonamide], the IC50 in the assay with MDA-MB-231 cells is 1500 nM; at BTK wt, over 1000 nM; in the assay on EOL-1 cells it was 750 nM; against EGFR wt, over 1000 nM.
`CN([C@@H]1c2ccccc2C[C@H]1Oc1nc(Nc2ccc3c(c2)OCCOCCOCCO3)nc2[nH]cnc12)S(C)(=O)=O` [Compound-31, N-methyl-N-[(1R,2R)-2-[[2-(2,5,8,11-tetraoxabicyclo[10.4.0]hexadeca-1(12),13,15-trien-14-ylamino)-9H-purin-6-yl]oxy]indan-1-yl]methanesulfonamide] gave a half-inhibitory concentration (IC50) at BTK wt of 198 nM.

For the origin of these results see patent US11440904B2, “Substituted pyrimidines, pharmaceutical compositions and therapeutic methods thereof” (priority 2017, dated 2022).
